Active and inactive are the calls of the source.
Experiments:
[1] = MITF Orthogonal Assay: SK-MEL-5 CTG Assay Measured in Cell-Based System Using Plate Reader - 2084-02_Inhibitor_Dose_DryPowder_Activity_Set7.; format: functional
[2] = MITF: Counter assay: A375 proliferation Measured in Cell-Based System Using Plate Reader - 2084-03_Inhibitor_Dose_DryPowder_Activity_Set8.; format: functional; settings: A-375
[3] = TRPM1 promoter luciferase reporter signal decrease, dose response, MITF inhibitor project, cell-based, SK-MEL-5, dry powder, set 8 (AID 624430); format: functional
[4] = molecular target: 1-phosphatidylinositol 4,5-bisphosphate phosphodiesterase gamma-1 (Homo sapiens, UniProt P19174); experiment: Counterscreen for inhibitors of phospholipase C isozymes (PLC-B3): Fluorescence-based biochemical high throughput dose response assay to identify inhibitors of phospholipase C isozymes (PLC-gamma1).
1-phosphatidylinositol 4,5-bisphosphate phosphodiesterase gamma-1, sequence (P19174 whole entry): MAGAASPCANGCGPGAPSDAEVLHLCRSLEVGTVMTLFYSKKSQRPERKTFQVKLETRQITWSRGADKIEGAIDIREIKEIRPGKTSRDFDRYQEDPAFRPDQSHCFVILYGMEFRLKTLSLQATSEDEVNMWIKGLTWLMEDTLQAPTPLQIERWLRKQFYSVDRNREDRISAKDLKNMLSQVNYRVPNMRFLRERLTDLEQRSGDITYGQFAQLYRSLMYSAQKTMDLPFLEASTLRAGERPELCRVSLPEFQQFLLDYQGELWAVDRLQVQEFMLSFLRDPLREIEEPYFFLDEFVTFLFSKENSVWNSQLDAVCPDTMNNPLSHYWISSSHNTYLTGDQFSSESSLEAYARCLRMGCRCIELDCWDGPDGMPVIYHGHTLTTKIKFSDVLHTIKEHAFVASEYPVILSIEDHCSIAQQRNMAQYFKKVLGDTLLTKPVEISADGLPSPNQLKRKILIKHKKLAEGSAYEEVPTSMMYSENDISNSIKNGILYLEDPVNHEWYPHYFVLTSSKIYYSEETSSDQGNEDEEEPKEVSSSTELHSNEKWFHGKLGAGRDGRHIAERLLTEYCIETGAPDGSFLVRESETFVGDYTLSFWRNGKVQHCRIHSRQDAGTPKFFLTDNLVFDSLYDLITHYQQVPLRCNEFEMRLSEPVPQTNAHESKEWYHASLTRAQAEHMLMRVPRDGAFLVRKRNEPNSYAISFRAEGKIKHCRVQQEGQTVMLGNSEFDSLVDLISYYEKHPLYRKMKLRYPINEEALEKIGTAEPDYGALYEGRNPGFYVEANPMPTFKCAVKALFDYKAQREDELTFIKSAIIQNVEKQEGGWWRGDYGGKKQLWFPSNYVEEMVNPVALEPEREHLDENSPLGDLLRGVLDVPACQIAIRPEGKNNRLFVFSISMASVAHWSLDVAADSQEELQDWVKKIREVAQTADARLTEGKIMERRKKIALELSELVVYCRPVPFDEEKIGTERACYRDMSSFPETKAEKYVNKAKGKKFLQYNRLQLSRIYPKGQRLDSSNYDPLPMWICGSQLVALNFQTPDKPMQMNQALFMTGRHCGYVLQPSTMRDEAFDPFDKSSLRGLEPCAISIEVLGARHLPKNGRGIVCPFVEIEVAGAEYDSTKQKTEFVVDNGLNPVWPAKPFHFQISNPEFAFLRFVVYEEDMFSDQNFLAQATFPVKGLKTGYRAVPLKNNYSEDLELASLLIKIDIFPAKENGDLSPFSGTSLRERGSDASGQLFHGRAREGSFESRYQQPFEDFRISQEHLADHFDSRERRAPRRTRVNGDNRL

[5] = molecular target: 1-phosphatidylinositol 4,5-bisphosphate phosphodiesterase beta-3 (Homo sapiens, UniProt Q01970); experiment: Fluorescence-based biochemical high throughput dose response assay to identify inhibitors of phospholipase C isozymes (PLC-B3).
1-phosphatidylinositol 4,5-bisphosphate phosphodiesterase beta-3, sequence (Q01970 whole entry): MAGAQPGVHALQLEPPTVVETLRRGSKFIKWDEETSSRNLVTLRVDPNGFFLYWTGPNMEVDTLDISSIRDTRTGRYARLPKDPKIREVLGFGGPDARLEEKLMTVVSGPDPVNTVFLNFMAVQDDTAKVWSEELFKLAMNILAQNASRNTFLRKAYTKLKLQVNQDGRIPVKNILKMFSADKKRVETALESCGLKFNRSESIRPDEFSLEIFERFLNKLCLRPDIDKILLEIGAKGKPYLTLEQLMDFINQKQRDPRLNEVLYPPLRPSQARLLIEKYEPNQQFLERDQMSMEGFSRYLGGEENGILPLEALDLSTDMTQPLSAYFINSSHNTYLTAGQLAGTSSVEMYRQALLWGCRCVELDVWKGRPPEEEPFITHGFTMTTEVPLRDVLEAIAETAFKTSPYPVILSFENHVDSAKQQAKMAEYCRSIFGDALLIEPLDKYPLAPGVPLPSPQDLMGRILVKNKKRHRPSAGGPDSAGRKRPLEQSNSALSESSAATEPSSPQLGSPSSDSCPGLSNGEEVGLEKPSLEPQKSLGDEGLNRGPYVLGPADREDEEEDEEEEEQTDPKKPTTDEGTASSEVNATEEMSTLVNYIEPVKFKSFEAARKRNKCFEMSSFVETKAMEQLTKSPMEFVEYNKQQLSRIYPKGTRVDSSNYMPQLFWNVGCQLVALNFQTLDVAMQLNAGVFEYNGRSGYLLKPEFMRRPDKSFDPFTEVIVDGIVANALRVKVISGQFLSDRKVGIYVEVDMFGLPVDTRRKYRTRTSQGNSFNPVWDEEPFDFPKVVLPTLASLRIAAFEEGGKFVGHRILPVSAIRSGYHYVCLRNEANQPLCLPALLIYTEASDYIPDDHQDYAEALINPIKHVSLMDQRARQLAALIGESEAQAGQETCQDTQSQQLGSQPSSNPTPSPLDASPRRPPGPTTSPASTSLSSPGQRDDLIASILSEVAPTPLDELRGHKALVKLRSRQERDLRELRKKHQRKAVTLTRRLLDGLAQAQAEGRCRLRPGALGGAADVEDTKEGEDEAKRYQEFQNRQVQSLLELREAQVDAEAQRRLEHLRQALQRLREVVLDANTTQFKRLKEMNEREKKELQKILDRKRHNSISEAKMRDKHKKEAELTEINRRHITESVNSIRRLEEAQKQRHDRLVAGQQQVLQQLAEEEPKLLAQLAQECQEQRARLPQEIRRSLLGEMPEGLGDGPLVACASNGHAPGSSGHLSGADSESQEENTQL

[6] = cytotoxicity in HPDE-C7 cells, cell-based, fluorescence, HTS (AID 430); format: functional; settings: Homo sapiens
[7] = cytotoxicity in KRAS-transformed pancreatic duct cells, primary screen, cell-based, fluorescence, HTS (AID 431); format: functional; settings: Homo sapiens;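 also: cell line used: HPDE-C7K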
[8] = molecular target: T1, Replicative DNA helicase DnaB (Mycobacterium tuberculosis, UniProt P9WMR3); experiment: DnaB intein splicing inhibitors, dose response, biochemical, cell-free fluorescence (AID 449749); format: functional
T1 sequence (P9WMR3 whole entry): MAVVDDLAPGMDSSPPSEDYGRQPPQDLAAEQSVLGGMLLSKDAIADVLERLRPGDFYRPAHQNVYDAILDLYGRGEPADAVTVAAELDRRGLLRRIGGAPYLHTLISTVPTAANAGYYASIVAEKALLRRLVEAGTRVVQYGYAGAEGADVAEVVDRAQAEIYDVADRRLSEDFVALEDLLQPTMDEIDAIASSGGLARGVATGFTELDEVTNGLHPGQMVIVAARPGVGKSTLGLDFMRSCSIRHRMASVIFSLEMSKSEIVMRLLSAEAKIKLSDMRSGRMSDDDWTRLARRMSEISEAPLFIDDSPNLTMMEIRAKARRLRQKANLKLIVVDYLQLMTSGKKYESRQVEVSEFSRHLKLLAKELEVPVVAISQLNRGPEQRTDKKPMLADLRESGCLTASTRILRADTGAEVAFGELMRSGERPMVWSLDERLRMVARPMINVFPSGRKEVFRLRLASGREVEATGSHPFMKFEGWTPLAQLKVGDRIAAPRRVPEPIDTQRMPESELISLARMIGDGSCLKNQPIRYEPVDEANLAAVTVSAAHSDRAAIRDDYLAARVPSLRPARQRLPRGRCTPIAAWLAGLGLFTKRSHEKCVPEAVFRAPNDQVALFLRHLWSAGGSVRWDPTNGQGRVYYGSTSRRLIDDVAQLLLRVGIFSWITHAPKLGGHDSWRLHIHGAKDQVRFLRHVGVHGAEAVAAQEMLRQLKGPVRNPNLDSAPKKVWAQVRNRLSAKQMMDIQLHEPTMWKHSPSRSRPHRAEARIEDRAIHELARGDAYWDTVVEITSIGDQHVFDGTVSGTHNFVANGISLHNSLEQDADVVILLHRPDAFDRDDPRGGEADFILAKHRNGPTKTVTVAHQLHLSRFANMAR

Protein RecA = molecular target: T2, Protein RecA (Mycobacterium tuberculosis, UniProt P9WHJ3); experiment: Fluorescence Cell-Free Homogeneous Dose Retest to Identify Inhibitors of RecA-Intein Splicing Activity. [Related pubchem assays (depositor defined):AID2097, AID2223, AID489010, AID492950]; format: functional
T2 sequence (P9WHJ3 whole entry): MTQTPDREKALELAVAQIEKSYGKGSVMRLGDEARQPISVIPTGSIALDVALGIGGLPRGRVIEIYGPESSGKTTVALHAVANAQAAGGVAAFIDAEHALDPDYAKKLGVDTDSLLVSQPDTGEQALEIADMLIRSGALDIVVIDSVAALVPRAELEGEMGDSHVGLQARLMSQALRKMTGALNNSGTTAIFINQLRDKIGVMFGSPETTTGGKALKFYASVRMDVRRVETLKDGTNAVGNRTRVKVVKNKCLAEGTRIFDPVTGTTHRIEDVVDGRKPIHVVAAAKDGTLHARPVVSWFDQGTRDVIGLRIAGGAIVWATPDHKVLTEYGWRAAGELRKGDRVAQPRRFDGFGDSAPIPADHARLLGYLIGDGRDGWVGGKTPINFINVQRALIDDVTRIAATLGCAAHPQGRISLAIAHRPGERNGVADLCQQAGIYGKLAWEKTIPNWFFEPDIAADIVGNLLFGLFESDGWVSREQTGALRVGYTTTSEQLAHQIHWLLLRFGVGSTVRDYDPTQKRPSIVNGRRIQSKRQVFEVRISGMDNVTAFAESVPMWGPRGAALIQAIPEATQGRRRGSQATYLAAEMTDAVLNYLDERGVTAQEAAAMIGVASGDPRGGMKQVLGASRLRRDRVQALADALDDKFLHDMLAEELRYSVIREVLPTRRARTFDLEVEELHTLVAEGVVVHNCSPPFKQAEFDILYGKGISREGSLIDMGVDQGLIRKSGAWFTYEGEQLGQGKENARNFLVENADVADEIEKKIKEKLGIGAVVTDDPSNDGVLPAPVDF

Galanin receptor type 3 = Galanin receptor type 3 (Homo sapiens, UniProt O60755); experiment: Fluorescence-based cell-based primary high throughput dose response assay to identify antagonists of the Galanin Receptor 3 (GalR3).; format: functional
Galanin receptor type 3, sequence (O60755 whole entry): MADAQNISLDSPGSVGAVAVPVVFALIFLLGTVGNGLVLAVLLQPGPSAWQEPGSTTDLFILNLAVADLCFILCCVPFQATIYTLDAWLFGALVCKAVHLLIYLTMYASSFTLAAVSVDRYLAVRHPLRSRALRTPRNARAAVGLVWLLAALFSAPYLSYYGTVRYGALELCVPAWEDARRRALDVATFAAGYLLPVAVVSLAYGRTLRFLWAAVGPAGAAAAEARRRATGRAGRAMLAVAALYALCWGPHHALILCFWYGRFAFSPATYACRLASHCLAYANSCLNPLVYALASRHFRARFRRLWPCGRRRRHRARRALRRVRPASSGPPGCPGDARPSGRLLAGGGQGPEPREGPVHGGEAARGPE

cells [9] = format: functional, cell-based; settings: HEK-CNG
[10] = T. cruzi growth inhibition in host cells, dose response, cell-based, plate reader, dry powder, set 2 (AID 652275); format: functional
[11] = molecular target: Disintegrin and metalloproteinase domain-containing protein 17 (Homo sapiens, UniProt P78536); experiment: exosite inhibitors of ADAM17, dose response, biochemical (AID 743260)
Disintegrin and metalloproteinase domain-containing protein 17, sequence (P78536 whole entry, the tested form may be a part): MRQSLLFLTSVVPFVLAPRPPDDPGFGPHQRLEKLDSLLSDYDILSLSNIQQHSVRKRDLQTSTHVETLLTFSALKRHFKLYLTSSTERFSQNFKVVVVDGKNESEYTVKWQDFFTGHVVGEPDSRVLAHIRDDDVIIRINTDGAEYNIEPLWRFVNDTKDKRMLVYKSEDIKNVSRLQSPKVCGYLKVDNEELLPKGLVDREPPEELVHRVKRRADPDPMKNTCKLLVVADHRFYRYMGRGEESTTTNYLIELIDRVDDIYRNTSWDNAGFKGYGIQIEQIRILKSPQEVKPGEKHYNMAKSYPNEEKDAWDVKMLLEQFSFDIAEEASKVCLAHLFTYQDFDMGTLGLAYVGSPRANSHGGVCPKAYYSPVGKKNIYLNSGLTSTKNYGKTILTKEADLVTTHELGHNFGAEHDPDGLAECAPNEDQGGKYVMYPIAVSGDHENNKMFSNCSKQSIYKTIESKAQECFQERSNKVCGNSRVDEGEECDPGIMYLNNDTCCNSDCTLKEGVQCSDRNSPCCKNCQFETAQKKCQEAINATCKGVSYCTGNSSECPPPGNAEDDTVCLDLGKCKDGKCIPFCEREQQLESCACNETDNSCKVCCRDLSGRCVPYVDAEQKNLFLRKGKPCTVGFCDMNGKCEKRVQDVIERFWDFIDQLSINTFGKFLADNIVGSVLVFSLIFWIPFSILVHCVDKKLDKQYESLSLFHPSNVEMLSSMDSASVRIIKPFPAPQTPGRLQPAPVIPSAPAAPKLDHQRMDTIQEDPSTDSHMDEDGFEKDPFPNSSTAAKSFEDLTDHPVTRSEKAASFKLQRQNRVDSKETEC

[12] = ADAM10 protease inhibitors, dose response, selectivity assay for ADAM17 exosite inhibitor project, biochemical, FRET peptide substrate, recombinant human ADAM10 (AID 743259);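 also: ADAM10 enzyme cleaving a FRET peptide substrate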
[13] = molecular target: T3, Mannose-6-phosphate isomerase (Homo sapiens, UniProt P34949); experiment: human PMI inhibitors, high substrate, primary screen, biochemical, fluorescence intensity, high mannose 6-phosphate (AID 1220)
T3 sequence (P34949 whole entry): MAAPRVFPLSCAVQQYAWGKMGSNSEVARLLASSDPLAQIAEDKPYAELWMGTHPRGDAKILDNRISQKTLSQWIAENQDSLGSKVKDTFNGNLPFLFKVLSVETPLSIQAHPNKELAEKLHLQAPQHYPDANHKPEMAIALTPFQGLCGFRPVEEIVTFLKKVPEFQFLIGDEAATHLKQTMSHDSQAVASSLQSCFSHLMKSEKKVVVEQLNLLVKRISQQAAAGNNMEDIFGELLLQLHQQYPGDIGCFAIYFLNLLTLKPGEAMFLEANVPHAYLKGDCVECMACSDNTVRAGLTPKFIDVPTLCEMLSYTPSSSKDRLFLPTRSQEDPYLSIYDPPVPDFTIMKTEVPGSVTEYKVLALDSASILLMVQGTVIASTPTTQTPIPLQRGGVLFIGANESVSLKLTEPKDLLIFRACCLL

[14] = molecular target: T4, Sentrin-specific protease 8 (Homo sapiens, UniProt Q96LD8); format: functional
T4 sequence (Q96LD8 whole entry): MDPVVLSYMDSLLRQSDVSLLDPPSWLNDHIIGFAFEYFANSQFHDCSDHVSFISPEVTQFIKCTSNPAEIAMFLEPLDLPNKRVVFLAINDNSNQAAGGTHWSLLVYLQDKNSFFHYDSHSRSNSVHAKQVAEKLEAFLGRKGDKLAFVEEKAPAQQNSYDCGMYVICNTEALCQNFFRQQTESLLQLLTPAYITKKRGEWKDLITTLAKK

[15] = molecular target: T4, Sentrin-specific protease 8; format: functional; remark: listed apart in the source
Caspase-3 = molecular target: T5, Caspase-3 (Homo sapiens, UniProt P42574); experiment: Dose-response confirmation of uHTS inhibitor hits of Sentrin-Specific Protease 8 in a Caspase-3 Fluorescence assay.; format: functional
T5 sequence (P42574 whole entry): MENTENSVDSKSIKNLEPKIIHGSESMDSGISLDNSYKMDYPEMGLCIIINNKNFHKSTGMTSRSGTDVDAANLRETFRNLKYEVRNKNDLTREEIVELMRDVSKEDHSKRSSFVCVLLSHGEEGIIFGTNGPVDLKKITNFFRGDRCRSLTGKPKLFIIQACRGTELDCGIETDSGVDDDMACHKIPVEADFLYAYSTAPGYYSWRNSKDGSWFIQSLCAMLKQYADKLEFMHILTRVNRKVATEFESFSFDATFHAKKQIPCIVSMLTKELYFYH

cells [16] = format: functional, cell-based
[17] = molecular target: T6, Nuclear receptor subfamily 0 group B member 1 (Homo sapiens, UniProt P51843); format: functional, cell-based;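 also: HEK293T cells transfected with SF-1 and DAX-1 plus StAR promoter luciferase reporter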
T6 sequence (P51843 whole entry): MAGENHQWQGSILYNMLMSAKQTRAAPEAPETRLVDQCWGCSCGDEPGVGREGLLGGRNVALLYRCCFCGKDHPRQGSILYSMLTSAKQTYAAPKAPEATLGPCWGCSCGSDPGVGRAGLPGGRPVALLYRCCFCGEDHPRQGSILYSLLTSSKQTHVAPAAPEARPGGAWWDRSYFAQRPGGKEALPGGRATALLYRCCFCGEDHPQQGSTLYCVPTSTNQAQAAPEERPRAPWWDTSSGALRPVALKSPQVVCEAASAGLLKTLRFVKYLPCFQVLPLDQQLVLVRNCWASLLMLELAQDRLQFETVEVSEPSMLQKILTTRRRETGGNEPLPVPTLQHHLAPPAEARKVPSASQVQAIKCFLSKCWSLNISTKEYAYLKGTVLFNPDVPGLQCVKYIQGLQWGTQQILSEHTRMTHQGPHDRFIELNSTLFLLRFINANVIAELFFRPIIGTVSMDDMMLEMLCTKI

[18] = HepG2 cell cytotoxicity, dose response, cytotoxicity control, ATP luminescence, cherry-pick, activator set 2 (AID 1053143); format: functional, cell-based
Paired box protein Pax-8 = Paired box protein Pax-8 (Homo sapiens, UniProt Q06710); experiment: inhibitors of PAX8-driven TPO luciferase reporter, dose response, RMG-I cells, cherry-pick (AID 687027); format: functional, cell-based;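 also: luciferase reporter driven by Pax8 target thyroperoxidase promoter measured by SteadyGlo luminescence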
Paired box protein Pax-8, sequence (Q06710 whole entry): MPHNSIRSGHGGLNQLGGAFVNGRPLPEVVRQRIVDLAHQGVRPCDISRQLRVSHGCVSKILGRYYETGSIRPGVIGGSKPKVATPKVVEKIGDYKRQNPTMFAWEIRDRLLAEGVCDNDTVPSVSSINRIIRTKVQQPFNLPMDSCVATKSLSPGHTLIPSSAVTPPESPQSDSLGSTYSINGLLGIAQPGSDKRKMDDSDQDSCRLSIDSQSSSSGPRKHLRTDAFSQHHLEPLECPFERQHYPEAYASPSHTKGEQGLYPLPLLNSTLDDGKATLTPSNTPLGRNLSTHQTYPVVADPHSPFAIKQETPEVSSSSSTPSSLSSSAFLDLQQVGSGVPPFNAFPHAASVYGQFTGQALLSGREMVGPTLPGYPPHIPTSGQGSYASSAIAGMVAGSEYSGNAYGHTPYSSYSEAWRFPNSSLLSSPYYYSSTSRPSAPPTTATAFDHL

[19] = non-specific cell cytotoxicity, dose response, cytotoxicity control for PAX8 inhibitor project, plate reader, dry powder samples (AID 743021); format: functional, cell-based
[20] = molecular target: T7, High affinity choline transporter 1 (Homo sapiens, UniProt Q9GZV3); experiment: CHT inhibitors, dose response, cell-based, 5-point CRC, membrane potential dye (AID 504840); format: functional
T7 sequence (Q9GZV3 whole entry): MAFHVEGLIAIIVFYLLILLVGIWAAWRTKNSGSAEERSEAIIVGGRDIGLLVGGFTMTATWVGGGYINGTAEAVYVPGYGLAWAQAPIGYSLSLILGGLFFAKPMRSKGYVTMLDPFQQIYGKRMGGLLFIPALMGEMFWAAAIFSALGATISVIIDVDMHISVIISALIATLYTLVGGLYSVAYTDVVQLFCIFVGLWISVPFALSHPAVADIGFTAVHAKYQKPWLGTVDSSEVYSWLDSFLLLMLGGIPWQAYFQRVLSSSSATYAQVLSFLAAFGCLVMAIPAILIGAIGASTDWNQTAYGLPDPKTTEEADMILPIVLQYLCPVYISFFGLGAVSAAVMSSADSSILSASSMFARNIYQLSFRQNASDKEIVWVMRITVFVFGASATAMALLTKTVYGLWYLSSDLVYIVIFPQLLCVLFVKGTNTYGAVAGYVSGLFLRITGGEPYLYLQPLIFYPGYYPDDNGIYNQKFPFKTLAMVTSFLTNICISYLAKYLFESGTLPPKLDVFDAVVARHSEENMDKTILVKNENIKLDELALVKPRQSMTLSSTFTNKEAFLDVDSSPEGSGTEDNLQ

cells [21] = format: functional, cell-based; remark: listed apart in the source
cells [22] = format: functional, cell-based; remark: listed apart in the source

CC(C)N1CCN(C2=C(Nc3ccc(I)cc3)C(=O)c3ccccc3C2=O)CC1
AC50 [1]: 10.8 µM (active)
AC50 [2]: 33.9 µM (active)
AC50 [3]: 2.96 µM (active)

COC(=O)C1CCCN1C(=O)COc1ccc(Br)cc1Cl (configuration not stated)
IC50 [4]: > 122 µM (inactive)
IC50 [5]: > 122 µM (inactive)

CCn1c2ccccc2c2cc(C3C(C#N)=C(N)Oc4[nH]nc(COC)c43)ccc21 (configuration not stated)
EC50 [6]: 7.03 µM (active)
EC50 [7]: 7.72 µM (active)
AC50 [8]: > 380 µM (inconclusive)
EC50 (Protein RecA): 2.7 µM (active)
IC50 (Galanin receptor type 3): > 29.9 µM (inactive)
EC50 (cells [9]): > 29.9 µM (inactive)

CC(C)N1CC2(CN(Cc3cccc(F)c3)C2)Oc2c(NC(=O)c3ccncc3)cccc2C1=O
AC50 [10]: 0.41 µM (active)

COc1cccc(C(Nc2ccccc2)c2ccc3ccc(C)nc3c2O)c1 (configuration not stated)
IC50 [11]: > 69.2 µM (inactive)
IC50 [12]: 18.5 µM (inactive)

CCOC(=O)c1nn(-c2ccccc2C)c(=O)c2c(N)scc12
IC50 [13]: > 50 µM (not active)
AC50 [8]: > 120 µM (inactive)
EC50 (Protein RecA): 11.4 µM (active)
IC50 [14]: 4.12 µM (active)
IC50 [15]: 17.3 µM (active)
IC50 (Caspase-3): 93.3 µM (inactive)

O=C(Nc1nnc(SCc2ccccc2F)s1)C1=COCCO1
IC50 (cells [16]): > 67.6 µM (inactive)
IC50 [17]: > 67.6 µM (inactive)

NC(=O)c1ccc(NC(=O)C#Cc2ccccc2)cc1
AC50 [18]: 26 µM (active)

COc1ccc(-c2cc(CNc3nc(NC(C)C)nc4cc(-c5ccccc5)sc34)on2)cc1
AC50 (Paired box protein Pax-8): 9.84 µM (active)
AC50 [19]: 18.8 µM (active)

CN(C)C(=O)c1cccc(-c2ccc([C@H]3[C@@H](CO)N4CCCCN(C(=O)C5CCC5)C[C@H]34)cc2)c1
AC50 [10]: 1.29 µM (active)

CC(C)N1CCN(C2=C(Nc3ccc(Cl)c(Cl)c3)C(=O)c3ccccc3C2=O)CC1
AC50 [1]: 8.71 µM (active)
AC50 [2]: 19.4 µM (active)
AC50 [3]: 3.21 µM (active)

COc1ccccc1Nc1nnc(SCC2CCCCO2)s1 (configuration not stated)
IC50 [20]: 4.17 µM (active)
IC50 (cells [16]): > 67.5 µM (inactive)
IC50 [17]: > 0.834 µM (active)

CC(C)c1cccc(-c2csc(C(O)c3cccc(Cl)c3)n2)c1 (configuration not stated)
IC50 [11]: > 69.5 µM (inactive)
IC50 [12]: 42.8 µM (inactive)

COc1ccc2nc(NC(=O)c3cccs3)sc2c1
EC50 (cells [21]): > 350 µM (not active)
EC50 (cells [22]): 7.18 µM (active)
AC50 [18]: 26 µM (active)

— ChEMBL document CHEMBL1201862, “PubChem BioAssay data set” (2004)
